Data on one compound can be found in patent EP0011821A2, “Antiseborrhoeic hair treatment composition” (Henkel Kommanditgesellschaft auf Aktien, priority 1978, dated 1980).

The test system of the assay is Meerschweinchen. The assay can be described thus: Test for anti-dandruff effect on oleic-acid-treated back skin of shorn guinea pigs (skin fold thickness and visual scaling score). Type of assay: in vivo. As to conditions: 5 % test substance with 5 % Ölsäure in 70 %igem Ethanol, topical on the back, 60 min exposure on 4 consecutive days, relative to skin treated with 5 % Ölsäure in 70 % Ethanol only, significant (+, 95 %). From the text: Die Prüfung auf Antischuppenwirkung wurde in folgender Weise durchgeführt:
Die Prüfsubstanz wurde in 5 % iger Konzentration zusammen mit 5 % Ölsäure in 70 %igem Ethanol gelöst und in alternierender Reihenfolge und in rotierendem Schema auf den Rücken junger, geschorener weiblicher Meerschweinchen im Gewicht von 600 ± 50 g aufgetragen. Die Einwirkungszeit der Substanz wurde dabei auf 60 Minuten begrenzt, da diese Zeit ausreichte, um eine Wirkung zu erzielen. Anschließend wurden die Tiere mit warmem Wasser 30 Sekunden lang abgeduscht. Die Reihenfolge der Tiere bei der Applikation wechselte dabei täglich, um Differenzen in der Einwirkungszeit zwischen dem ersten und letzten Tier der Gruppe auf ein Minimum zu begrenzen. Diese Behandlung geschah an vier aufeinanderfolgenden Tagen, darauf folgte eine Ruhezeit (Entwicklungszeit von drei Tagen). Am siebenten Tag wurde ausgewertet, und zwar a) kutimetrisch auf Hautfaltendicke instrumentell mit dem Cutimeter nach Götze und b) visuell auf Schuppenbildung bzw. Hemmung nach einer 4-Punkte-Skala folgender Definition: • 0 = keine Schuppen • 1 = leichte Schuppen • 2 = kräftige Schuppen • 3= starke Schuppen mit Rötung • 4 = Krusten mit Aufrichten der Haare.
Die Versuchsgruppe bestand aus 6 Tieren. Das Kollektiv wurde mathematisch auf Homogenität geprüft und nach Eliminierung signifikant abweichender Tiere wurden Mittelwert und Streuung berechnet. […]

As to `COc1ccc(Cc2nccc3cc(OC)c(OC)cc23)cc1OC` [Papaverin, 1-(3',4'-dimethoxybenzyl)-6,7-dimethoxy-isochinolin], under “evaluated on day 7 with the Cutimeter nach Götze”, the “Hautdickenmessung Hemmung %” value amounted to 17%. Under “evaluated visually on day 7 on a 0-4 scale”, the “Hautschuppenmessung Hemmung %” value came to 100%.
